For 28 molecules, EC50 results are on record in patent US12558357B2, “Tetrahydroquinazoline derivatives as selective cytotoxic agents” (Merck Sharp & Dohme LLC, priority 2020, dated 2026).

This experiment deals with PBMCs infected with VSV-G pseudotyped HIV virus (VSV-G/pNLG1-P2A-ΔEnv). As to the kind of experiment: cells. The format is cell-based, human. The note with it: Homo sapiens, PBMC, read-out: EC50 (HIV-TACK cell kill activity).
For the molecule `O=C1Nc2cc(Cn3cnc(CO)cc3=O)ccc2[C@@](C#CC2CC2)(C(F)(F)F)N1` [Example 63, (S)-4-(cyclopropylethynyl)-7-((4-(hydroxymethyl)-6-oxopyrimidin-1(6H)-yl)methyl)-4-(trifluoromethyl)-3,4-dihydroquinazolin-2(1H)-one], the EC50 (commonly the concentration that produces a half-maximal response) was 145 nM. Turning to `Nc1nc(Br)cn(Cc2cc3c(cc2F)[C@@](C#CC2CC2)(C(F)(F)F)NC(=O)N3)c1=O` [Example 16, (S)-7-((3-amino-5-bromo-2-oxopyrazin-1(2H)-yl)methyl)-4-(cyclopropylethynyl)-6-fluoro-4-(trifluoromethyl)-3,4-dihydroquinazolin-2(1H)-one], the EC50 was 38 nM. Turning to `CC(F)(F)c1ncn(Cc2ccc3c(c2)NC(=O)N[C@]3(C#CC2CC2)C(F)(F)F)c(=O)c1N` [Example 81, (S)-7-((5-amino-4-(1,1-difluoroethyl)-6-oxopyrimidin-1(6H)-yl)methyl)-4-(cyclopropylethynyl)-4-(trifluoromethyl)-3,4-dihydroquinazolin-2(1H)-one], the EC50 was determined as 166 nM. In the case of `O=C1Nc2cc(Cn3cnc(CO)cc3=O)c(F)cc2[C@@](C#CC2CC2)(C(F)(F)F)N1` [Example 65, (S)-4-(cyclopropylethynyl)-6-fluoro-7-((4-(hydroxymethyl)-6-oxopyrimidin-1(6H)-yl)methyl)-4-(trifluoromethyl)-3,4-dihydroquinazolin-2(1H)-one], the half-maximal effective concentration (EC50) was found to be 45 nM. Take `CN1C(=O)Nc2cc(Cn3ccnc(N)c3=O)ccc2[C@@]1(C#CC1CC1)C(F)(F)F` [Example 46, (S)-7-((3-amino-2-oxopyrazin-1(2H)-yl)methyl)-4-(cyclopropylethynyl)-3-methyl-4-(trifluoromethyl)-3,4-dihydroquinazolin-2(1H)-one]: the concentration for a half-maximal effect (EC50) came out at 101 nM. In the case of `CC(C)CC#CC1(C(F)(F)F)NC(=O)Nc2cc(Cn3cnccc3=O)ccc21` (racemic) [Example 79, (S)-4-(4-methylpent-1-yn-1-yl)-7-((6-oxopyrimidin-1(6H)-yl)methyl)-4-(trifluoromethyl)-3,4-dihydroquinazolin-2(1H)-one AND (R)-4-(4-methylpent-1-yn-1-yl)-7-((6-oxopyrimidin-1(6H)-yl)methyl)-4-(trifluoromethyl)-3,4-dihydroquinazolin-2(1H)-one], the concentration for a half-maximal effect (EC50) stood at 230 nM.

Consider `CC(F)(F)[C@@]1(C#CC2CC2)NC(=O)Nc2cc(Cn3cnccc3=O)c(Cl)cc21` [Example 48, (S)-6-chloro-4-(cyclopropylethynyl)-4-(1,1-difluoroethyl)-7-((6-oxopyrimidin-1(6H)-yl)methyl)-3,4-dihydroquinazolin-2(1H)-one], for which the EC50 is 12 nM. Regarding `O=C1Nc2cc(Cn3cnccc3=O)c(F)cc2[C@@](C#CC2CC2)(C(F)(F)F)N1` [Example 1, (S)-4-(cyclopropylethynyl)-6-fluoro-7-((6-oxopyrimidin-1(6H)-yl)methyl)-4-(trifluoromethyl)-3,4-dihydroquinazolin-2(1H)-one], the EC50 came to 22 nM.

As to `O=C1Nc2cc(Cn3cnc(C(F)(F)F)cc3=O)ccc2[C@@](C#CC2CC2)(C(F)(F)F)N1` [Example 25, (S)-4-(cyclopropylethynyl)-7-((6-oxo-4-(trifluoromethyl)pyrimidin-1(6H)-yl)methyl)-4-(trifluoromethyl)-3,4-dihydroquinazolin-2(1H)-one], the EC50 is 194 nM. As for `Cc1cc(=O)n(Cc2cc3c(cc2F)[C@@](C#CC2CC2)(C(F)(F)F)NC(=O)N3)cn1` [Example 43, (S)-4-(cyclopropylethynyl)-6-fluoro-7-((4-methyl-6-oxopyrimidin-1(6H)-yl)methyl)-4-(trifluoromethyl)-3,4-dihydroquinazolin-2(1H)-one], the EC50 is 50 nM. As to `COCc1cc(=O)n(Cc2ccc3c(c2)NC(=O)N[C@]3(C#CC2CC2)C(F)(F)F)cn1` [Example 31, (S)-4-(cyclopropylethynyl)-7-((4-(methoxymethyl)-6-oxopyrimidin-1(6H)-yl)methyl)-4-(trifluoromethyl)-3,4-dihydroquinazolin-2(1H)-one], the EC50 amounted to 146 nM. For the molecule `O=C1Nc2c(cc(F)c(Cn3cnccc3=O)c2F)[C@@](C#CC2CC2)(C(F)(F)F)N1` [Example 49, (S)-4-(cyclopropylethynyl)-6,8-difluoro-7-((6-oxopyrimidin-1(6H)-yl)methyl)-4-(trifluoromethyl)-3,4-dihydroquinazolin-2(1H)-one], the 50% effective concentration (EC50) was 96 nM. For the molecule `COCc1cc(=O)n(Cc2ccc3c(c2)NC(=O)N[C@]3(C#CC2CC2)C(C)(F)F)cn1` [Example 15, (S)-4-(cyclopropylethynyl)-4-(1,1-difluoroethyl)-7-((4-(methoxymethyl)-6-oxopyrimidin-1(6H)-yl)methyl)-3,4-dihydroquinazolin-2(1H)-one], the EC50 came to 65 nM.

As to `O=C1Nc2cc(Cn3cnccc3=O)c(Br)cc2[C@@](C#CC2CC2)(C(F)(F)F)N1` [Example 14, (S)-6-bromo-4-(cyclopropylethynyl)-7-((6-oxopyrimidin-1(6H)-yl)methyl)-4-(trifluoromethyl)-3,4-dihydroquinazolin-2(1H)-one], the EC50 came to 31 nM. In the case of `Cc1cn(Cc2ccc3c(c2)NC(=O)N[C@]3(C#CC2CC2)C(F)(F)F)c(=O)c(N)n1` [Example 59, (S)-7-((3-amino-5-methyl-2-oxopyrazin-1(2H)-yl)methyl)-4-(cyclopropylethynyl)-4-(trifluoromethyl)-3,4-dihydroquinazolin-2(1H)-one], the EC50 was 78 nM.

For `Cc1nc(N)c(=O)n(Cc2ccc3c(c2)NC(=O)N[C@]3(C#CC2CC2)C(F)(F)F)c1C` [Example 60, (S)-7-((3-amino-5,6-dimethyl-2-oxopyrazin-1(2H)-yl)methyl)-4-(cyclopropylethynyl)-4-(trifluoromethyl)-3,4-dihydroquinazolin-2(1H)-one], the 50% effective concentration (EC50) was 156 nM. With `Nc1cc(=O)n(Cc2ccc3c(c2)NC(=O)N[C@]3(C#CC2CC2)C(F)(F)F)cn1` [Example 28, (S)-7-((4-amino-6-oxopyrimidin-1(6H)-yl)methyl)-4-(cyclopropylethynyl)-4-(trifluoromethyl)-3,4-dihydroquinazolin-2(1H)-one], the EC50 stood at 171 nM. For the molecule `N#Cc1ncn(Cc2cc3c(cc2F)[C@@](C#CC2CC2)(C(F)(F)F)NC(=O)N3)c(=O)c1N` [Example 69, (S)-5-amino-1-((4-(cyclopropylethynyl)-6-fluoro-2-oxo-4-(trifluoromethyl)-1,2,3,4-tetrahydroquinazolin-7-yl)methyl)-6-oxo-1,6-dihydropyrimidine-4-carbonitrile], the EC50 was 29 nM. For the molecule `Cc1cn(Cc2cc3c(cc2F)[C@@](C#CC2CC2)(C(C)(F)F)NC(=O)N3)c(=O)c(N)n1` [Example 85, (S)-7-((3-amino-5-methyl-2-oxopyrazin-1(2H)-yl)methyl)-4-(cyclopropylethynyl)-4-(1,1-difluoroethyl)-6-fluoro-3,4-dihydroquinazolin-2(1H)-one], the EC50 came to 14 nM. On to `Nc1nccn(Cc2ccc3c(c2)NC(=S)N[C@]3(C#CC2CC2)C(F)(F)F)c1=O` [Example 71, (S)-3-amino-1-((4-(cyclopropylethynyl)-2-thioxo-4-(trifluoromethyl)-1,2,3,4-tetrahydroquinazolin-7-yl)methyl)pyrazin-2(1H)-one], for which the concentration giving a half-maximal response (EC50) was determined as 41 nM. In the case of `O=C1Nc2cc(Cn3cnc(Cl)cc3=O)c(F)cc2[C@@](C#CC2CC2)(C(F)(F)F)N1` [Example 44, (S)-7-((4-chloro-6-oxopyrimidin-1(6H)-yl)methyl)-4-(cyclopropylethynyl)-6-fluoro-4-(trifluoromethyl)-3,4-dihydroquinazolin-2(1H)-one] it was 47 nM. Take `CN1C(=O)Nc2cc(Cn3cnccc3=O)c(Cl)cc2C1(C#CC1CC1)C(F)(F)F` (racemic) [Example 78, (S)-6-chloro-4-(cyclopropylethynyl)-3-methyl-7-((6-oxopyrimidin-1(6H)-yl)methyl)-4-(trifluoromethyl)-3,4-dihydroquinazolin-2(1H)-one AND (R)-6-chloro-4-(cyclopropylethynyl)-3-methyl-7-((6-oxopyrimidin-1(6H)-yl)methyl)-4-(trifluoromethyl)-3,4-dihydroquinazolin-2(1H)-one]: the concentration for a half-maximal effect (EC50) was 38 nM. In the case of `O=C1Nc2cc(Cn3cnc(Cl)cc3=O)ccc2[C@@](C#CC2CC2)(C(F)(F)F)N1` [Example 35, (S)-7-((4-chloro-6-oxopyrimidin-1(6H)-yl)methyl)-4-(cyclopropylethynyl)-4-(trifluoromethyl)-3,4-dihydroquinazolin-2(1H)-one], the EC50 amounted to 101 nM. With `CC(F)(F)[C@@]1(C#CC2CC2)NC(=O)Nc2cc(Cn3cnccc3=O)ccc21` [Example 55, (S)-4-(cyclopropylethynyl)-4-(1,1-difluoroethyl)-7-((6-oxopyrimidin-1(6H)-yl)methyl)-3,4-dihydroquinazolin-2(1H)-one], the EC50 is 96 nM. For the molecule `Cc1cc(=O)n(Cc2ccc3c(c2)NC(=O)N[C@]3(C#CC2CC2)C(F)(F)F)cn1` [Example 34, (S)-4-(cyclopropylethynyl)-7-((4-methyl-6-oxopyrimidin-1(6H)-yl)methyl)-4-(trifluoromethyl)-3,4-dihydroquinazolin-2(1H)-one], the 50% effective concentration (EC50) is 117 nM. As for `COCc1cc(=O)n(Cc2cc3c(cc2F)[C@@](C#CC2CC2)(C(F)(F)F)NC(=O)N3)cn1` [Example 7, (S)-4-(cyclopropylethynyl)-6-fluoro-7-((4-(methoxymethyl)-6-oxopyrimidin-1(6H)-yl)methyl)-4-(trifluoromethyl)-3,4-dihydroquinazolin-2(1H)-one], the figure is 44 nM; as for `O=C1Nc2cc(Cn3ccc(=O)[nH]c3=O)ccc2[C@@](C#CC2CC2)(C(F)(F)F)N1` [Example 54, (S)-1-((4-(cyclopropylethynyl)-2-oxo-4-(trifluoromethyl)-1,2,3,4-tetrahydroquinazolin-7-yl)methyl)pyrimidine-2,4(1H,3H)-dione], 284 nM. In the case of `N#Cc1ncn(Cc2ccc3c(c2)NC(=O)N[C@]3(C#CC2CC2)C(F)(F)F)c(=O)c1N` [Example 57, (S)-5-amino-1-((4-(cyclopropylethynyl)-2-oxo-4-(trifluoromethyl)-1,2,3,4-tetrahydroquinazolin-7-yl)methyl)-6-oxo-1,6-dihydropyrimidine-4-carbonitrile] it was 127 nM.
